Reference: patent publication US4886821A, “2-pyridinecarbothioamides and pharmaceutical compositions comprising the same useful as anti ulcer agents” (American Home Products Corporation, priority 1987, dated 1989)

Columns and labels:
[1] = test system: gastric mucosal lesions produced by ethanol; test: Ethanol induced cytotoxicity (gastric mucosal lesions) in rats; format: in vivo, Male Sprague-Dawley rats; settings: for ED50: Rattus norvegicus, po; for % Inhibition: oral, inhibition of lesion formation vs control
Description: The purpose of this assay is to evaluate the effectiveness of the compounds of the present invention in preventing the formation of gastric mucosal lesions produced by ethanol. The assay is based on A. Robert, et al: Gastroenterology, 77: 433-443, 1979.
Male Sprague-Dawley rats weighing between 120-150 grams were fasted for 24 hours prior to the experiment (water ad libitum). At least two hours before dosing, the animals were placed in individual cages with wire grid bottoms and denied access to water.
Ethanol was administered orally at 1 mL per animal. The compounds of the present invention were dissolved in water or suspended in water with 0.5% carboxymethylcellulose and administered orally at a dose based on an appropriate standard giving ED50 to ED75 response of cytoprotective activity.
The rats were randomly divided into groups of equal number, ordinarily 10 to a group. The rats were weighed and the individual weights were recorded. Exactly 1 hour (4 hours in the case of Example 5) prior to the administration of ethanol, the screening group was treated with the compounds of the present invention, and the control group with the vehicle. One hour after administering the ethanol the animals were sacrificed by cervical dislocation. The stomachs were removed, cut along the greater curvature and cleansed of all debris with tap water. The stomachs were set aside and kept moist with saline until the lesions were scored.
Macroscopic lesions on the gastric mucosa were numerically graded. The final grade assigned a stomach was the sum of all the grades.
Streaks longer than 6 mm are graded in multiples of 2 mm.
The degree of cytotoxicity occuring in each group is represented as the mean±S.E.M.
The mean of each treatment group was compared to the control group and expressed as the % inhibition of lesion formation.

stress induced ulcers = test: Stress-induced gastric ulcers in rats; format: in vivo, Male rats; settings: Rattus norvegicus, po; orally or parenterally, usually 15 to 45 minutes prior to stress; restraint at 4-5 °C for 3 hours, sodium taurocholate p.o.; read-out: Stress Induced Ulcer ED50
Description: The purpose of this assay is to evaluate the effectiveness of the compounds of the present invention in preventing stress induced ulcers.
Male rats (280-380 g) were fasted for 18 hours (water available ad libitum) prior to use in experiments. Eight to twelve rats were used per group.
Drug solutions or suspensions were prepared in physiological saline solution. Suspensions were prepared with the aid of 0.5% carboxymethylcellulose in physiological saline solution. Drugs were administered orally or parenterally at predetermined intervals (usually 15 to 45 minutes) prior to stress.
This test procedure is according to the method of Senay et al., Proc. Soc. Exp. Biol. Med. 124, 1221 (1967), modified to produce a more consistent ulcer incidence. After drug administration, the rats were immobilized in metallic restrainers and placed in a cold room at 4°-5° C. for 3 hours before they were killed by cervical dislocation. Each rat was given 20 mg of sodium taurocholate p.o. immediately before placing it in the restrainer. After killing the rats, the stomachs were excised and examined. Macroscopic ulcers were subjectively assigned a grade from 1 to 3 on the basis of increasing size. The number of ulcers in each size category was determined and multiplied by the respective grade; the addition of the resultant values gave the cumulative ulcer score. The average cumulative ulcer score of each treatment group was compared to that of the control group and the percent inhibition of ulcer formation as calculated. When the responses obtained were directly proportional to the doses employed, ED50 values were determined from the dose-response curves obtained.

ethanol induced ulcer = settings: Robert et al., Scand. J. Gastroenterol. 1984; cited from earlier work
[2] = 10 mg/kg, 1 hour prior to ethanol

SMILES	ED50 [1] [mg/kg]	ED50 (stress induced ulcers) [mg/kg]	also measured
Fc1cccc(F)c1NC(=S)c1ccccn1 [Example 9, N-(2,6-Difluorophenyl)-2-pyridinecarbothioamide]	0.38	1.8	
Fc1ccccc1NC(=S)c1ccccn1 [Example 5, N-(2-Fluorophenyl)-2-pyridinecarbothioamide]			% Inhibition ([1]; 100 mg/kg, 4 hours prior to ethanol): 69%
Fc1ccc(NC(=S)c2ccccn2)cc1 [Example 3, N-(4-Fluorophenyl)-2-pyridinecarbothioamide]	2.5	3.8	
CN(C(=S)c1ccccn1)c1cc(F)cc(F)c1 [Example 7, N-(3,5-Difluorophenyl)-N-methyl-2-pyridinecarbothioamide]			% Inhibition ([1]; 25 mg/kg, 1 hour prior to ethanol): 40%
CC(C)[N+](C)(CCOC(=O)C1c2ccccc2Oc2ccccc21)C(C)C [propantheline bromide]			protection in ethanol induced ulcer model (ethanol induced ulcer): do not protect in this model
CN(C(=S)c1ccccn1)c1cccc(F)c1 [Example 6, N-(3-Fluorophenyl)-N-methyl-2-pyridinecarbothioamide]			% Inhibition [1, 2]: 31%
CN/C(=N/CCSCc1nc[nH]c1C)NC#N [cimetidine]			protection in ethanol induced ulcer model (ethanol induced ulcer): do not protect in this model
CCN(C(=S)c1ccccn1)c1cc(F)cc(F)c1 [Example 8, N-(3,5-Difluorophenyl)-N-ethyl-2-pyridinecarbothioamide]			% Inhibition [1, 2]: 13%
Fc1ccc(F)c(NC(=S)c2ccccn2)c1 [Example 12, N--(2,5-difluorophenyl)-2-pyridinecarbothioamide]	6.2		
Fc1cccc(NC(=S)c2ccccn2)c1 [Example 4, N-(3-Fluorophenyl)-2-pyridinecarbothioamide]	1		
Fc1cccc(NC(=S)c2ccccn2)c1F [Example 10, N--(2,3-difluorophenyl)-2-pyridinecarbothioamide]	1	0.9	
Fc1ccc(NC(=S)c2ccccn2)c(F)c1 [Example 2, N-(2,4-Difluorophenyl)-2-pyridinecarbothioamide]	4.8	38	
